Common to all, as to type: cell-based
One test concerns AsPC-1 (G12D) cells. Description: Cell viability assay (CELLTITER-GLO), AsPC-1 cells. The following applies: Homo sapiens, ASPC1, 72 h, Inhibition of cancerous cells, 3 days incubation, luminescence. The procedure: (§1) AsPC-1, H358, and SW48 cells were cultured in RPMI 1640 media supplemented with 10% fetal bovine serum, streptomycin, and penicillin. Lovo and SW480 cells were cultured in DMEM media supplemented with 10% fetal bovine serum, streptomycin, and penicillin. The cell lines were plated in their respective medium supplemented with 2.5% fetal bovine serum, streptomycin, and penicillin. All cell lines were plated in white walled 96-well plates at 2,000 cells/well or 384-well plates at 500 cells/well, except Lovo, which were plated at 4,000 or 1,000 cells/well, respectively. The cells were incubated in DMSO (control) or a compound for 3 days at 37° C. under 5% CO2. A CELLTITER-GLO® reagent ([…] was then added to each well. After a 10 min incubation with shaking, luminescence was measured using an ENVISION® multimode plate reader. IC50 values are summarized in Table 1.

For the next test, the system named is SW480 (G12V) cells. The test can be described thus: Cell viability assay (CELLTITER-GLO), SW480 cells. The following applies: Homo sapiens, 72 h, Inhibition of cancerous cells, 3 days incubation, luminescence. The method, then:
as §1
(In general: Cellular ATP, detected with luciferase, serves as a proxy for viable cell number.)

The test system of the next test is Lovo (G13D) cells. Description: Cell viability assay (CELLTITER-GLO), Lovo cells. The following applies: Homo sapiens, 72 h, Inhibition of cancerous cells, 3 days incubation, luminescence. The method, then: as §1
In another test the test system is SW48 (wt) cells. The test can be described thus: Cell viability assay (CELLTITER-GLO), SW48 cells. The following applies: Homo sapiens, 72 h, Inhibition of cancerous cells, 3 days incubation, luminescence. The procedure:
as §1

In another test the test system is H358 (G12C) cells. The test can be described thus: Cell viability assay (CELLTITER-GLO), H358 cells. The following applies: Homo sapiens, NCI-H358, 72 h, Inhibition of cancerous cells, 3 days incubation, luminescence. The method, then:
as §1

Bounds are passed on as bounds.

For the compound `CNCc1ccccc1-c1csc([C@H](C)Nc2nc(C)nc3cc(OCCCCCCC(=O)N4CCCCC4)c(OC)cc23)c1` [Compound A69, (S)-7-((6-Methoxy-2-methyl-4-((1-(4-(2-((methylamino)methyl)phenyl)thiophen-2-yl)ethyl)amino)quinazolin-7-yl)oxy)-1-(piperidin-1-yl)heptan-1-one], the IC50 (in general, the point on the concentration scale where inhibition reaches its midpoint) in the test on AsPC-1 (G12D) cells stood at 2 µM; in the test on SW480 (G12V) cells, 0.41 µM; in the test with Lovo (G13D) cells it was 0.72 µM; in the test on SW48 (wt) cells, 0.66 µM; in the test with H358 (G12C) cells it was 0.93 µM.

Turning to `CNCc1ccccc1-c1csc([C@@H](C)Nc2nc(C)nc3cc(OCCC(C)(C)C)c(OC)cc23)c1` [Compound A62, (R)-7-(3,3-Dimethylbutoxy)-6-methoxy-2-methyl-N-(1-(4-(2-((methylamino)-methyl)phenyl)thiophen-2-yl)ethyl)quinazolin-4-amine], the IC50 turned out to be 1.1 µM in the test with AsPC-1 (G12D) cells; 0.45 µM with SW480 (G12V) cells; 0.5 µM in the test with Lovo (G13D) cells; 0.53 µM in the test on SW48 (wt) cells; 1.3 µM with H358 (G12C) cells.

With `COc1cc2c(N[C@H](C)c3cccc(Br)c3)nc(C)nc2cc1OCCCCCCCN1CCC2(CC1)CCN(C(=O)OC(C)(C)C)CC2` [Compound A72, Tert-butyl (R)-9-(7-((4-((1-(3-bromophenyl)ethyl)amino)-6-methoxy-2-methyl-quinazolin-7-yl)oxy)heptyl)-3,9-diazaspiro[5.5]undecane-3-carboxylate], the IC50 in the test on AsPC-1 (G12D) cells amounted to 1 µM; in the test with SW480 (G12V) cells it was 0.48 µM; in the test with Lovo (G13D) cells, 0.39 µM; with SW48 (wt) cells, 0.64 µM; in the test with H358 (G12C) cells it was 1.1 µM.

With `CNCc1ccccc1-c1csc([C@@H](C)Nc2nc(C)nc3cc(OCCCCCCCC4CCC(c5ccccc5)CC4)c(OC)cc23)c1` (stereo partly drawn) [Compound A60, (R)-6-Methoxy-2-methyl-N-(1-(4-(2-((methylamino)methyl)phenyl)thiophen-2-yl)ethyl)-7-((7-(4-phenylcyclohexyl)heptyl)oxy)quinazolin-4-amine], the IC50 with AsPC-1 (G12D) cells stood at 0.51 µM; in the test with SW480 (G12V) cells it was 0.25 µM; in the test with Lovo (G13D) cells it was 0.24 µM; in the test with SW48 (wt) cells it was 0.17 µM; with H358 (G12C) cells, 0.53 µM.

Turning to `COc1cc2nc(C)nc(N[C@H](C)c3cccc(C(F)(F)CO)c3)c2cc1OC` [reference compound], the IC50 with AsPC-1 (G12D) cells, in the test with SW480 (G12V) cells, in the test on Lovo (G13D) cells, with SW48 (wt) cells and in the test with H358 (G12C) cells was above 10 µM each time.

As to `COc1cc2c(N[C@H](C)c3cccc(Br)c3)nc(C)nc2cc1OCCCCCCCNCCC(F)(F)F` [Compound A70, (R)—N-(1-(3-Bromophenyl)ethyl)-6-methoxy-2-methyl-7-((7-((3,3,3-trifluoro-propyl)amino)heptyl)oxy)quinazolin-4-amine], the half-maximal inhibitory concentration (IC50) was 1.3 µM with AsPC-1 (G12D) cells; 0.93 µM in the test with SW480 (G12V) cells; 0.5 µM with Lovo (G13D) cells; 0.98 µM with SW48 (wt) cells; 1.4 µM in the test with H358 (G12C) cells.

For `CNCc1ccccc1-c1csc([C@@H](C)Nc2nc(C)nc3cc(OC)c(OC)cc23)c1` [reference compound], the IC50 in the test with AsPC-1 (G12D) cells turned out to be 3.5 µM; in the test on SW480 (G12V) cells, 1 µM; with Lovo (G13D) cells, 0.69 µM; with SW48 (wt) cells, 1.3 µM; in the test with H358 (G12C) cells it was 1.7 µM.

Consider `CNCc1ccccc1-c1csc([C@H](C)Nc2nc(C)nc3cc(OCCC(C)(C)C)c(OC)cc23)c1` [Compound A63, (S)-7-(3,3-Dimethylbutoxy)-6-methoxy-2-methyl-N-(1-(4-(2-((methylamino)-methyl)phenyl)thiophen-2-yl)ethyl)quinazolin-4-amine], for which the 50% inhibitory concentration (IC50) turned out to be 1 µM with AsPC-1 (G12D) cells; 0.46 µM in the test with SW480 (G12V) cells; 0.42 µM with Lovo (G13D) cells; 0.53 µM in the test with SW48 (wt) cells; 1.1 µM with H358 (G12C) cells.

The values above are taken from patent US20240197888A1, “SOS1 PROTEIN DEGRADERS, PHARMACEUTICAL COMPOSITIONS THEREOF, AND THEIR THERAPEUTIC APPLICATIONS” (BioTheryX, Inc., priority 2021, published 2024).
